Data reported in patent publication US20100240746A1, “STEREOISOMERS OF TRICYCLODECAN-9-YL-XANTHOGENATE” (LUMAVITA AG, priority 2007, published 2010).
Where two headings read alike, the source gives them in different places.

System: HPV-31 specific DNA in HPV-31-infected CIN612 9E keratinocytes
Experiment: Long-term study, HPV-31 specific DNA (Southern Blot)
Assay type: cell-based, human papilloma virus
Procedure: HPV-31 infected cells (3×10^6) were dispensed into 14.5 cm dishes containing fresh E medium and 1×10^6 cells of mitomycin C-treated 3T3 fibroblast feeders. The dishes were incubated in a CO2 incubator under 5% CO2 at 37° C. in 100% humidity. Human A431 epithelial cancer cells were used as HPV-uninfected negative controls. After 6 hr incubation, the cell culture medium was removed and fresh E medium containing 0.85 g/L NaHCO3 and a test compound at concentrations of 10 and 3.3 μg/mL, or control (interferon γ at 200 IU/mL) were added. For each concentration, 4 dishes were prepared. The dishes were incubated at 37° C. in a CO2 incubator. The culture medium was replaced to new E medium containing each concentration of the test compound or control in every 72 hrs. After seven days, or when untreated cells became confluent, one dish of each group was harvested for DNA/RNA extraction, followed by Southern/Northern Blot analysis; and one dish was trypsinized, cell number were determined and cells were seeded in three new dishes, treated and cultured as described above. This procedure was repeated for 9 passages. During these passages, morphology of cells and cell density were monitored.
Effect on HPV-31 specific DNA and RNA: DNA and RNA were analyzed in Southern and Northern Blot gels for HPV-31 specific sequences. X-ray films were scanned and optical densities of HPV-31 specific DNA and major mRNA species were integrated. Time curves were established by plotting integrated values against number of passages for each treatment dose. The T50 (time required to reduce the level to 50% of control) was determined from the time curves from crossing points of time curves with a line parallel to the x-axis corresponding to 50% of integrals of untreated control sample.

S=C(S)OC1CC2CC1C1CCCC21 (single isomer, unassigned; (-)) [(−)-Enantiomer 1A, (−)-O-exo/C-exo-tricyclo[5.2.1.0^2,6]-dec-9-yl-xanthic acid]
T50 DNA (3.3 μg/mL): 2.23 passages
HPV-31 specific DNA content (3.3 μg/mL or 10 μg/mL): continuous reductions
T50 DNA (10 μg/mL, listed as (−)-enantiomer 1A): < 1 passages
T50 DNA (10 μg/mL, listed as Cmpd 1A): <1 passages
activity at 10 µg/mL (Human papillomavirus, Keratinocyte, 10 μg/mL, after 6 passages, read-out: number of viral genomes per cell, reduced to): < 5%
activity at 10 µg/mL (Human papillomavirus, Keratinocyte, 10 μg/mL, after 9 passages, read-out: viral DNA remaining): < 1%
inhibition at 10 µg/mL (Human papillomavirus, Keratinocyte, 10 μg/mL, after a single passage, read-out: reduction of number of viral genomes per cell): > 50%
